Each structure is given as a SMILES string. Where “and” joins values, the source holds several entries; their conditions need not be identical. Identical values can stand only once. Entries after “also recorded” stand apart in the source; their conditions may differ.

We go through one molecule from US20140142170A1, “COMPOSITION AND METHOD FOR INFLUENCING ENERGY METABOLISM AND TREATING METABOLIC AND OTHER DISORDERS” (SIRTUIN VALLEY OY, priority 2010, published 2014).

In assay [1] the test system is mitochondria of 3T3L1 preadipocytes. Nature of the assay: Mitochondrial staining with MitoTracker green, confocal microscopy. The format is cell-based. To be noted: 60 μM, 24 hours. Here is the method: The 3T3L1 preadipocytes were plated onto Ibidi u-slide 8 well plates at 1.6×10^4 cells/well and incubated at 37° C. in a humidified atmosphere with 10% CO2. The media was removed after 24 hours, the cells were treated with 60 μM GR24 and incubated for 24 hours at 37° C. in a humidified atmosphere with 10% CO2. After 24 hours of treatment, staining of mitochondria was done using 200 nM MitoTracker Mitochondrion-Selective Probes (Green FM probes Cat.#M7514, Invitrogen) according to the manufacturer's instructions. The cells were observed using a confocal microscope and images were taken at 40× oil immersion.
Preadipocytes were treated with DMSO (Vehicle control) (FIG. 5A), 60 μM resveratrol (FIG. 5B) or 60 μM strigolactone analog GR24 (FIG. 5C) for 24 hours. Next, preadipocytes were stained with MitoTracker green and observed under a confocal microscope at 40× oil immersion. […] The white oval shaped structures are nucleus and the white thread-like structures around the nucleus in the cytoplasm are mitochondria. When compared to the control, there was an increase in mitochondrial biogenesis represented by elongated mitochondria, and an increase in mitochondrial activation represented by the intensity of fluorescence, in cells treated with resveratrol and GR24. […] Thus, GR24 enhances both biogenesis and activity of mitochondria, which is necessary to generate ATP.

For assay [2], the system named is SIRT1. In words: SIRT1 protein expression, immunoblot and densitometry in 3T3 L1 preadipocytes. The format is cell-based. To be noted: 24 hours; for SIRT1 protein expression compared to control: 3T3 L1 cells, 60 μM each compound; for SIRT1 protein expression vs control: 3T3L1 preadipocytes, 100 μM. How it is done:
3T3L1 cells were purchased from American Type Culture Collection (Manassas, Va., USA) and cultured in DMEM media containing 4.5 g/l glucose supplemented with 10% fetal bovine serum (Hyclone), 2 mM L-glutamine (Gibco), 100 U/ml penicillin, and 100 μg/ml streptomycin (Gibco). The cells were cultured at 37° C. in a humidified atmosphere with 10% CO2.
The 3T3L1 cells were plated at 6×10^4 cells/well in 12 well plates and incubated at 37° C. in a humidified atmosphere with 10% CO2. The media was removed after 24 hours and the cells were treated with 60 μM GR24 individually and in combination with […] and 60 μM pinosylvin, and incubated for 24 hours at 37° C. in a humidified atmosphere with 10% CO2. The media was removed, cells were washed with PBS, and cell lysates were collected on ice. Proteins were extracted using RIPA buffer along with protease and phosphatase inhibitors. Lysates were centrifuged for 30 min at high speed; supernatant was collected and stored at […] until further analysis. The vehicle controls were 3T3 L1 cells without any treatment with drugs or other compounds. The drugs or compounds that were used in all the experiments were dissolved or diluted in dimethylsulfoxide (DMSO) as diluent. In all experiments, the controls were treated with the same volume of DMSO as was used to dissolve drugs or compounds in compound-treated cells to show and ensure that the actual change in protein expression in different treatments was due solely to the compounds or combination of compounds and not to the DMSO.
Protein concentrations were measured using a BCA (bicinchoninic acid) protein assay kit (Cat.#23225; Pierce, Rockford, Ill.). Twenty (20) μg/lane of total cellular protein samples containing NuPAGE LDS sample buffer (Invitrogen) and reducing agent were loaded into 4-12% NuPAGE Bis-Tris gels (Invitrogen), subjected to gel electrophoresis, and transferred to polyvinylidene fluoride membranes (Amersham). For SIRT1 proteins, membranes were blocked in 0.05% TBS-Tween with 3% milk for 1 hour, incubated overnight at +4° C. with SIRT1 primary antibodies (Cat.#07-131, Millipore). For phospho-AMPKα and AMPKα proteins, blocking was done for 1 hour in 0.1% TBS-Tween with 5% milk. The membranes were incubated overnight at +4° C. with phospho-AMPKα (Cat. #2535, Cell Signaling) and AMPKα (Cat.#2532, Cell Signaling) primary antibodies. Horseradish peroxidase-conjugated anti-rabbit antibodies (Cat. #NA934V GE Health Care, Amersham, U.K) were used as secondary antibodies. For α-tubulin (loading control), membranes were blocked in 0.05% PBS-Tween with 3% milk for 1 hour, incubated with α-tubulin (Cat.# B-5-1-2, Sigma) primary antibodies for 1 hour at room temperature and horseradish peroxidase-conjugated anti-mouse (Cat. # NA 931V GE Health Care, Amersham, U.K.) IgG antibodies were used as secondary antibodies.
The membranes were developed using chemiluminescence (ECL plus, GE Health Care), and images were captured in an Image Quant RT-ECL machine (version 1.0.1; GE Health Care). Densitometry and quantification of the bands were done by applying Quantity One software (Bio-Rad). The expression levels of the proteins were normalized to α-tubulin protein levels.
3T3L1 cells were purchased from American Type Culture Collection (Manassas, Va., USA) and cultured in DMEM media containing 4.5 g/l glucose supplemented with 10% fetal bovine serum (Hyclone), 2 mM L-glutamine (Gibco) and 100 U/ml penicillin, 100 μg/ml streptomycin (Gibco). The cells were cultured at 37° C. in a humidified atmosphere with 10% CO2. 3T3L1 preadipocytes were plated at 1×10^5 cells/well in 6 well plates and incubated at 37° C. in a humidified atmosphere with 10% CO2. […] In all experiments, the controls were treated with the same volume of DMSO as was used to dissolve compounds in compound-treated cells to show and ensure that the actual change in protein expression in different treatments was only due to the compounds DMSO. […]
On the technique in general: A western blot detects proteins with antibodies after separation by electrophoresis.

`CC1=CC(O/C=C2/C(=O)O[C@@H]3c4ccccc4C[C@H]23)OC1=O` (stereo partly drawn) [GR24]: in assay [1], the “increase in intensity of staining, visibility” value is “clearly visible only in the GR24 treated cells”; the “mitochondrial activation (intensity of fluorescence) compared to control” value is listed as “increase”; the “mitochondrial biogenesis (elongated mitochondria) compared to control” value is recorded as “increase”. In addition, in assay [2], the “SIRT1 protein expression compared to control” value is on record as “significant increase; also recorded: significantly (*P<0.05) increased” and the “SIRT1 protein expression vs control” value is reported as “significantly increased”. In addition, in assay [2] (listed as GR 24), the “SIRT1 protein expression compared to control” value is “significant increase; also recorded: significantly (*P<0.05) increased” and the “SIRT1 protein expression vs control” value is “increase”. In addition, in assay [2] (3T3 L1 preadipocytes, 60 μM), the “SIRT1 expression compared with resveratrol” value is given as “greater than did resveratrol”. Besides, the “SIRT1 protein expression compared to control (100%)” value in assay [2] (3T3 L1 preadipocytes, 60 μM, control = 100%) was 168% and 164% and 198% and 220% and 149%.
